Values of other authors in article PMC9854340 (RSC Advances, 2023).

Columns and labels:
[1] = system: HL-60 human myeloblastic leukemia cells; details: HL-60 cells, MTT; data taken from a previous report
[2] = folding square to folded form; CH3CN-d3; van't Hoff plot; previous report

Ascidiacyclamide [Peptide 1a]
ED50 [1]: 32.9 ± 0.9 µg/mL | ΔH° [2]: -2.28 kcal/mol | ΔS° [2]: -0.009417 kcal/mol
